{"source": "paper PMC9669179", "about": "(Epilepsia, 2022)", "key": {"rats": {"tested_on": "rats", "conditions": "rat, cited from earlier work"}, "in vivo [1]": {"assay": "in vivo", "conditions": "Sprague Dawley, rat, ip"}, "adult CF-1 mice [2]": {"tested_on": "adult CF-1 mice", "assay": "Maximal electroshock", "assay_type": "in vivo, mouse", "conditions": "MES"}, "in vivo [3]": {"assay": "in vivo", "conditions": "Sprague Dawley, rat, ip", "remark": "listed apart in the source"}, "[4]": {"conditions": "CF-1, mouse, in vivo"}, "[5]": {"conditions": "CF-1, mouse, in vivo", "remark": "listed apart in the source"}, "[6]": {"tested_on": "adult Sprague-Dawley rats", "assay": "Maximal electroshock", "assay_type": "in vivo, rat", "conditions": "MES; for Efficacy in rats (number seizure protected /number tested): low dose i.p. (CLB 17, CBZ 3, VPA 165 mg/kg)"}, "in vivo [7]": {"assay": "in vivo", "conditions": "CF-1, mouse, ip"}, "in vivo [8]": {"assay": "in vivo", "conditions": "CF-1, mouse, ip", "remark": "listed apart in the source"}, "[9]": {"conditions": "rat, in vivo"}, "mice": {"tested_on": "mice", "conditions": "mouse, cited from earlier work"}, "[10]": {"tested_on": "adult Sprague-Dawley rats", "conditions": "rat, MES, i.p.; cited from earlier work"}, "adult CF-1 mice [11]": {"tested_on": "adult CF-1 mice", "conditions": "mouse, MES, i.p.; cited from earlier work"}, "[12]": {"conditions": "Sprague Dawley, rat, in vivo"}, "adult male CF-1 mice [13]": {"tested_on": "adult male CF-1 mice", "assay": "6 Hz 44 mA seizure test in mice", "assay_type": "in vivo, mouse"}, "[14]": {"assay": "Brain pharmacokinetics in rats", "conditions": "rat"}, "adult male CF-1 mice [15]": {"tested_on": "adult male CF-1 mice", "conditions": "mouse, 6 Hz 44 mA, i.p.; cited from earlier work"}, "[16]": {"assay": "Brain pharmacokinetics in mice"}, "[17]": {"assay": "Plasma pharmacokinetics in mice", "conditions": "CF-1, mouse, in vivo, ip"}, "[18]": {"assay": "Plasma pharmacokinetics in rats", "conditions": "Sprague Dawley, rat, in vivo, ip"}, "[19]": {"conditions": "low dose i.p.: CLB 17, CBZ 3, VPA 165, LEV 14 mg/kg"}, "[20]": {"conditions": "mouse, low dose i.p.: CLB 7, CBZ 7, VPA 260, LEV 20 mg/kg"}}, "note": "Where two headings read alike, the source gives them in different places.", "data": [{"smiles": "NC(=O)N1c2ccccc2C=Cc2ccccc21", "note": "[CBZ, carbamazepine]", "values": [{"measurement": "TD50 - high dose", "setting": "rats; in vivo, ip", "result": 24, "unit": "mg/kg"}, {"measurement": "Tmax", "setting": "in vivo [1]", "result": 15, "unit": "min"}, {"measurement": "half-life", "setting": "in vivo [1]; Brain t1/2", "result": 46.2, "unit": "min"}, {"measurement": "Efficacy in mice (number seizure protected/number tested)", "setting": "adult CF-1 mice [2]; high dose i.p. (CBZ 40 mg/kg), time test 0.25 h", "result": "4/4"}, {"measurement": "Efficacy in mice (number seizure protected/number tested)", "setting": "adult CF-1 mice [2]; high dose i.p. (CBZ 40 mg/kg), time test 0.5 h", "result": "4/4"}, {"measurement": "Efficacy in mice (number seizure protected/number tested)", "setting": "adult CF-1 mice [2]; high dose i.p. (CBZ 40 mg/kg), time test 1 h", "result": "4/4"}, {"measurement": "Efficacy in mice (number seizure protected/number tested)", "setting": "adult CF-1 mice [2]; high dose i.p. (CBZ 40 mg/kg), time test 2 h", "result": "4/4"}, {"measurement": "Efficacy in mice (number seizure protected/number tested)", "setting": "adult CF-1 mice [2]; high dose i.p. (CBZ 40 mg/kg), time test 4 h", "result": "4/4"}, {"measurement": "Efficacy in mice (number seizure protected/number tested)", "setting": "adult CF-1 mice [2]; high dose i.p. (CBZ 40 mg/kg), time test 8 h", "result": "0/4"}, {"measurement": "Efficacy in mice (number seizure protected/number tested)", "setting": "adult CF-1 mice [2]; low dose i.p. (CBZ 7 mg/kg), time test 0.25 h", "result": "3/4"}, {"measurement": "Efficacy in mice (number seizure protected/number tested)", "setting": "adult CF-1 mice [2]; low dose i.p. (CBZ 7 mg/kg), time test 0.5 h", "result": "3/4"}, {"measurement": "Efficacy in mice (number seizure protected/number tested)", "setting": "adult CF-1 mice [2]; low dose i.p. (CBZ 7 mg/kg), time test 1 h", "result": "2/4"}, {"measurement": "Efficacy in mice (number seizure protected/number tested)", "setting": "adult CF-1 mice [2]; low dose i.p. (CBZ 7 mg/kg), time test 2 h", "result": "0/4"}, {"measurement": "Efficacy in mice (number seizure protected/number tested)", "setting": "adult CF-1 mice [2]; low dose i.p. (CBZ 7 mg/kg), time test 4 h", "result": "0/4"}, {"measurement": "Efficacy in mice (number seizure protected/number tested)", "setting": "adult CF-1 mice [2]; low dose i.p. (CBZ 7 mg/kg), time test 8 h", "result": "0/4"}, {"measurement": "Seizure protection (in words)", "setting": "adult CF-1 mice [2]; mice, high dose CBZ 40 mg/kg i.p.", "result": "complete protection"}, {"measurement": "Tmax", "setting": "in vivo [3]", "result": 15, "unit": "min"}, {"measurement": "half-life", "setting": "in vivo [3]; Plasma t1/2", "result": 49.2, "unit": "min"}, {"measurement": "Brain Dose Prop (AUC)", "setting": "[4]", "result": 1.64}, {"measurement": "Brain t1/2", "setting": "[4]; ip", "result": 59.4, "unit": "min"}, {"measurement": "High-dose exposures greater than expected from low-dose", "setting": "[5]", "result": "50 - 60%"}, {"measurement": "Plasma Dose Prop (AUC)", "setting": "[5]", "result": 1.49}, {"measurement": "Plasma Dose Prop (Cmax)", "setting": "[5]", "result": 0.917}, {"measurement": "Plasma t1/2", "setting": "[5]; ip", "result": 66.6, "unit": "min"}, {"measurement": "Efficacy in rats (number seizure protected /number tested)", "setting": "[6]; time test 0.25 h", "result": "1/4"}, {"measurement": "Efficacy in rats (number seizure protected /number tested)", "setting": "[6]; time test 0.5 h", "result": "1/4"}, {"measurement": "Efficacy in rats (number seizure protected /number tested)", "setting": "[6]; time test 1 h", "result": "0/4"}, {"measurement": "Efficacy in rats (number seizure protected /number tested)", "setting": "[6]; time test 2 h", "result": "0/4"}, {"measurement": "Efficacy in rats (number seizure protected /number tested)", "setting": "[6]; time test 4 h", "result": "0/4"}, {"measurement": "Efficacy in rats (number seizure protected /number tested)", "setting": "[6]; time test 8 h", "result": "0/4"}, {"measurement": "Period for which 100% seizure protection was sustained", "setting": "[6]; rats, high-dose CBZ i.p.", "result": "~ 2 hrs"}, {"measurement": "Seizure protection", "setting": "[6]; rats, high-dose CBZ i.p.", "result": 100, "unit": "%"}, {"measurement": "Seizure protection (% protected)", "setting": "[6]; rats, low-dose CBZ i.p., within the first hour", "result": 25, "unit": "%"}, {"measurement": "Tmax", "setting": "in vivo [7]", "result": 15, "unit": "min"}, {"measurement": "half-life", "setting": "in vivo [7]; Plasma t1/2", "result": 78, "unit": "min"}, {"measurement": "Tmax", "setting": "in vivo [8]", "result": 15, "unit": "min"}, {"measurement": "half-life", "setting": "in vivo [8]; Brain t1/2", "result": 31.2, "unit": "min"}, {"measurement": "Plasma Dose Prop (AUC)", "setting": "[9]; Sprague Dawley", "result": 2.29}, {"measurement": "Plasma Dose Prop (Cmax)", "setting": "[9]; Sprague Dawley", "result": 1.138}, {"measurement": "Plasma t1/2", "setting": "[9]; Sprague Dawley, ip", "result": 70.8, "unit": "min"}, {"measurement": "High-dose concentrations relative to expected from low-dose", "setting": "[9]", "result": "approximately two-fold"}, {"measurement": "TD50 - high dose", "setting": "mice; in vivo, ip", "result": 40, "unit": "mg/kg"}, {"measurement": "ED50 - low dose", "setting": "[10]", "result": 3, "unit": "mg/kg"}, {"measurement": "ED50 - low dose", "setting": "adult CF-1 mice [11]", "result": 7, "unit": "mg/kg"}, {"measurement": "Brain Dose Prop (AUC)", "setting": "[12]", "result": 1.89}, {"measurement": "Brain t1/2", "setting": "[12]; ip", "result": 72, "unit": "min"}]}, {"smiles": "CN1C(=O)CC(=O)N(c2ccccc2)c2cc(Cl)ccc21", "note": "[CLB, Clobazam]", "values": [{"measurement": "TD50 - high dose", "setting": "rats; minimum motor impairment test, i.p.", "result": 37, "unit": "mg/kg"}, {"measurement": "Efficacy in mice (number seizure protected/number tested)", "setting": "adult male CF-1 mice [13]; high dose i.p. (CLB 17, VPA 570, LEV 500 mg/kg), time test 0.25 h", "result": "4/4"}, {"measurement": "Efficacy in mice (number seizure protected/number tested)", "setting": "adult male CF-1 mice [13]; high dose i.p. (CLB 17, VPA 570, LEV 500 mg/kg), time test 0.5 h", "result": "4/4"}, {"measurement": "Efficacy in mice (number seizure protected/number tested)", "setting": "adult male CF-1 mice [13]; high dose i.p. (CLB 17, VPA 570, LEV 500 mg/kg), time test 1 h", "result": "3/4"}, {"measurement": "Efficacy in mice (number seizure protected/number tested)", "setting": "adult male CF-1 mice [13]; high dose i.p. (CLB 17, VPA 570, LEV 500 mg/kg), time test 2 h", "result": "3/4"}, {"measurement": "Efficacy in mice (number seizure protected/number tested)", "setting": "adult male CF-1 mice [13]; high dose i.p. (CLB 17, VPA 570, LEV 500 mg/kg), time test 4 h", "result": "1/4"}, {"measurement": "Efficacy in mice (number seizure protected/number tested)", "setting": "adult male CF-1 mice [13]; high dose i.p. (CLB 17, VPA 570, LEV 500 mg/kg), time test 8 h", "result": "0/4"}, {"measurement": "Efficacy in mice (number seizure protected/number tested)", "setting": "adult male CF-1 mice [13]; low dose i.p. (CLB 7, VPA 260, LEV 20 mg/kg), time test 0.25 h", "result": "2/4"}, {"measurement": "Efficacy in mice (number seizure protected/number tested)", "setting": "adult male CF-1 mice [13]; low dose i.p. (CLB 7, VPA 260, LEV 20 mg/kg), time test 0.5 h", "result": "1/4"}, {"measurement": "Efficacy in mice (number seizure protected/number tested)", "setting": "adult male CF-1 mice [13]; low dose i.p. (CLB 7, VPA 260, LEV 20 mg/kg), time test 1 h", "result": "3/4"}, {"measurement": "Efficacy in mice (number seizure protected/number tested)", "setting": "adult male CF-1 mice [13]; low dose i.p. (CLB 7, VPA 260, LEV 20 mg/kg), time test 2 h", "result": "0/4"}, {"measurement": "Efficacy in mice (number seizure protected/number tested)", "setting": "adult male CF-1 mice [13]; low dose i.p. (CLB 7, VPA 260, LEV 20 mg/kg), time test 4 h", "result": "0/4"}, {"measurement": "Efficacy in mice (number seizure protected/number tested)", "setting": "adult male CF-1 mice [13]; low dose i.p. (CLB 7, VPA 260, LEV 20 mg/kg), time test 8 h", "result": "0/4"}, {"measurement": "Tmax", "setting": "[14]; Sprague Dawley, in vivo, ip", "result": 15, "unit": "min"}, {"measurement": "Brain AUC (0-8 hr)", "setting": "[14]; [19]", "result": 2.88, "unit": "ng·h/mg"}, {"measurement": "Brain Cmax", "setting": "[14]; [19]", "result": 2.90, "unit": "ng/mg"}, {"measurement": "Brain Cmin", "setting": "[14]; [19]", "result": 0.027, "unit": "ng/mg"}, {"measurement": "Efficacy in rats (number seizure protected /number tested)", "setting": "[6]; time test 0.25 h", "result": "0/4"}, {"measurement": "Efficacy in rats (number seizure protected /number tested)", "setting": "[6]; time test 0.5 h", "result": "0/4"}, {"measurement": "Efficacy in rats (number seizure protected /number tested)", "setting": "[6]; time test 1 h", "result": "0/4"}, {"measurement": "Efficacy in rats (number seizure protected /number tested)", "setting": "[6]; time test 2 h", "result": "0/4"}, {"measurement": "Efficacy in rats (number seizure protected /number tested)", "setting": "[6]; time test 4 h", "result": "0/4"}, {"measurement": "Efficacy in rats (number seizure protected /number tested)", "setting": "[6]; time test 8 h", "result": "0/4"}, {"measurement": "Seizure protection (in words)", "setting": "[6]; rats, high dose i.p. (CLB 37, VPA 315 mg/kg)", "result": "seizure protection was observed within the first hour"}, {"measurement": "Seizure protection (in words)", "setting": "[6]; rats, low dose i.p. (CLB 17, VPA 165 mg/kg)", "result": "did not protect"}, {"measurement": "ED50 - low dose", "setting": "adult male CF-1 mice [15]", "result": 7, "unit": "mg/kg"}, {"measurement": "Tmax", "setting": "[16]; CF-1, mouse, in vivo, ip", "result": 15, "unit": "min"}, {"measurement": "Brain AUC (0-8 hr)", "setting": "[16]; [20]", "result": 1.74, "unit": "ng·h/mg"}, {"measurement": "Brain Cmax", "setting": "[16]; [20]", "result": 2.26, "unit": "ng/mg"}, {"measurement": "Brain Cmin", "setting": "[16]; [20]", "result": 0.014, "unit": "ng/mg"}, {"measurement": "TD50 - high dose", "setting": "mice; rotarod test, i.p.", "result": 17, "unit": "mg/kg"}, {"measurement": "Tmax", "setting": "[17]", "result": 15, "unit": "min"}, {"measurement": "Tmax", "setting": "[18]", "result": 15, "unit": "min"}, {"measurement": "ED50 - low dose", "setting": "[10]", "result": 17, "unit": "mg/kg"}]}]}
